Experimental findings from ChEMBL document CHEMBL1156492, “(R)- and (S)-verapamil differentially modulate the multidrug-resistant protein MRP1” (J Biol Chem, 2007) are described below.

In general, IC50 refers to the concentration needed to halve the response being measured. A high value points to weaker potency in that assay.

Holding throughout (type): functional, cell-based
Assay [1] concerns BHK-21. The assay can be described thus: Cytotoxicity against human MRP1 expressing hamster BHK21 cells at 10 to 20 uM by MTT assay. The following applies: Mesocricetus auratus.
Assay [2] concerns BHK-21. The experiment in a line: Cytotoxicity against hamster BHK21 cells by MTT assay. The note with it: Mesocricetus auratus.
Assay [3] has as its system BHK-21. The assay can be described thus: Decrease in intracellular glutathione concentration in human MRP1 expressing hamster BHK21 cells. The following applies: Mesocricetus auratus.
Assay [4] relates to BHK-21. The assay can be described thus: Decrease in intracellular glutathione concentration in human MRP1 expressing hamster BHK21 cells at 5 uM. The following applies: Mesocricetus auratus.
Assay [5] has as its system BHK-21. The assay can be described thus: Cytotoxicity against human MRP1 expressing hamster BHK21 cells after 72 hrs by MTT assay. The note with it: Mesocricetus auratus, BHK-21, 72 h. (In general: Formazan colour is commonly taken as a measure of viable cells.)
Assay [6] deals with BHK-21. The experiment in a line: Cytotoxicity against hamster BHK21 cells after 72 hrs by MTT assay. The note with it: Mesocricetus auratus, BHK-21, 72 h.

Molecules are shown by their SMILES. Activity calls are given as the source filed them. No cut-off for these calls is given here.

Regarding `COc1ccc(CCN(C)CCCC(C#N)(c2ccc(OC)c(OC)c2)C(C)C)cc1OC` (racemic), the outcome in assay [1] was Active. In addition, the result in assay [2] was inactive.

With `COc1ccc(CCN(C)CCC[C@@](C#N)(c2ccc(OC)c(OC)c2)C(C)C)cc1OC`, the result in assay [3] and in assay [4] was Active.

With `CC[C@]1(O)C[C@H]2CN(CCc3c([nH]c4ccccc34)[C@@](C(=O)OC)(c3cc4c(cc3OC)N(C=O)[C@H]3[C@@](O)(C(=O)OC)[C@H](OC(C)=O)[C@]5(CC)C=CCN6CC[C@]43[C@@H]65)C2)C1` [VINCRISTINE], the half-maximal inhibitory concentration (IC50) in assay [5] amounted to 9.42 nM; in assay [6], 1.51 nM.

On to `COc1ccc(CCN(C)CCC[C@](C#N)(c2ccc(OC)c(OC)c2)C(C)C)cc1OC`, for which the outcome in assay [3] was inactive.
